Data published in patent US10653693B2, “PRMT5 inhibitors and uses thereof” (Epizyme, Inc., priority 2014, dated 2020).
Where two headings read alike, the source gives them in different places.

Key:
[1] = system: p53 expression in Z138 cells; test: p53 and p21 expression analysis (Western); type: cell-based, Human; conditions: Z138 mantle cell lymphoma cells
Protocol: Z138 cells were seeded at approximately 3×10^6 cells/dish in 10 cm tissue culture dishes in a volume of 10 mL IMDM+10% horse serum media. Cells were treated with 1 μM of Formula C for 1, 2, 3, 4, or 5 days. Cell pellets were collected by centrifuging at 500×g for 5 minutes, washing once with PBS, and freezing at −80° C. until ready to be processed.
Protein lysates were prepared by adding RIPA buffer (Sigma R0278) containing protease inhibitor (about 5× the volume of the cell pellet, or roughly 250 μL) to each cell pellet and pipetting to resuspend. Samples were sonicated with 10×1 second pulses then centrifuged at maximum speed (13,300 RPM) for 6 minutes. 200 μL of supernatant was transferred to a fresh Eppendorf tube, and pellets were discarded. Protein concentration was determined using a Pierce BCA Protein Assay kit.
Protein gel samples were prepared by combining 20 μg of lysate with appropriate volumes of Life Technologies NuPage Sample Reducing Agent, LDS Sample Buffer, and RIPA buffer. Gel samples were heated for 5-10 minutes at 100° C. in a heat block. A 15-well Invitrogen 4-12% Bis-Tris NuPAGE-SDS gel was loaded with a volume of 19 μL per well, and run in MES SDS buffer at 150V for about 1 hour or until maximal separation of bands was achieved.
Gels were transferred onto nitrocellulose membranes using an Invitrogen iBlot system. […]

[2] = system: sDMA methylation in Z-138 cells; test: sDMA western blot, 10 kDa band to total SmD3; type: cell-based; conditions: Homo sapiens
Protocol: (§1) The measurement of the 10 kDa band was used to calculate the methylation IC50 values. […] Concentration-dependent decreases in the 10 kDa band were observed on day 4 in all cell lines tested with representative western blots shown for Z-138 and Maver-1 cell lines (FIG. 1). Levels of the 10 kDa band from the western blots were quantified by densitometry and ratios of 10 kDa band (postulated to be SmD3me2s) to total SmD3 were calculated to determine the IC50s (Table 2, n=1 for all samples).

[3] = system: sDMA methylation in Mino cells; test: sDMA western blot, 10 kDa band to total SmD3; type: cell-based; conditions: Homo sapiens
Protocol: as §1

[4] = system: sDMA methylation in Granta-519 cells; test: sDMA western blot, 10 kDa band to total SmD3; type: cell-based; conditions: Homo sapiens
Protocol: as §1

[5] = system: sDMA methylation in Jeko-1 cells; test: sDMA western blot, 10 kDa band to total SmD3; type: cell-based; conditions: Homo sapiens
Protocol: as §1

[6] = system: sDMA methylation in Maver-1 cells; test: sDMA western blot, 10 kDa band to total SmD3; type: cell-based; conditions: Homo sapiens
Protocol: as §1

[7] = 96 h, day 4, N = 1, read-out: sDMA Western blot IC50 10 kDa Band
[8] = Table 3, read-out: sDMA Western IC50

IC50 [2, 7] [nM]	IC50 [2, 8] [nM]	IC50 [3, 7] [nM]	IC50 [3, 8] [nM]	IC50 [4, 7] [nM]	IC50 [4, 8] [nM]	IC50 [5, 7] [nM]	IC50 [5, 8] [nM]	IC50 ([6]; Maver1, 96 h, day 4, N = 1, read-out: sDMA Western blot IC50 10 kDa Band) [nM]	IC50 ([6]; Maver1, Table 3, read-out: sDMA Western IC50) [nM]	Compound	p53 expression [1]
–	–	–	–	–	–	–	–	–	–	O=C(NC[C@H](O)CN1CCc2ccccc2C1)c1ccnc(NC2CCC2)c1 [Formula C]	increases
1	1	2	2	0.3	0.3	9.5	9.5	0.1	0.1	CC(=O)N1CCC(Nc2cc(C(=O)NC[C@H](O)CN3CCc4ccccc4C3)ccn2)CC1 [Formula B]	–
